Tests used:
[1] = system: Phosphatidylinositol 4,5-bisphosphate 3-kinase catalytic subunit alpha isoform (Homo sapiens), P42336 [M1043I]; conditions: at 10 µM
[2] = biological target: High affinity nerve growth factor receptor (Homo sapiens, UniProt P04629); assay: Selectivity interaction (Kinase panel (Z-LYTE Assay)) EUB0001632a NTRK1; conditions: at 10 µM
[3] = biological target: Death-associated protein kinase 1 (Homo sapiens, UniProt P53355); assay: Selectivity interaction (KinomeScan (DiscoverX)) EUB0001049a DAPK1; conditions: at 1 µM
[4] = biological target: T1, Tyrosine-protein kinase ITK/TSK (Homo sapiens) (UniProt Q08881); assay: Selectivity interaction (Upstate Kinase Profiler service (Millipore)) EUB0000056c ITK; conditions: at 1 µM
T1 sequence (whole entry): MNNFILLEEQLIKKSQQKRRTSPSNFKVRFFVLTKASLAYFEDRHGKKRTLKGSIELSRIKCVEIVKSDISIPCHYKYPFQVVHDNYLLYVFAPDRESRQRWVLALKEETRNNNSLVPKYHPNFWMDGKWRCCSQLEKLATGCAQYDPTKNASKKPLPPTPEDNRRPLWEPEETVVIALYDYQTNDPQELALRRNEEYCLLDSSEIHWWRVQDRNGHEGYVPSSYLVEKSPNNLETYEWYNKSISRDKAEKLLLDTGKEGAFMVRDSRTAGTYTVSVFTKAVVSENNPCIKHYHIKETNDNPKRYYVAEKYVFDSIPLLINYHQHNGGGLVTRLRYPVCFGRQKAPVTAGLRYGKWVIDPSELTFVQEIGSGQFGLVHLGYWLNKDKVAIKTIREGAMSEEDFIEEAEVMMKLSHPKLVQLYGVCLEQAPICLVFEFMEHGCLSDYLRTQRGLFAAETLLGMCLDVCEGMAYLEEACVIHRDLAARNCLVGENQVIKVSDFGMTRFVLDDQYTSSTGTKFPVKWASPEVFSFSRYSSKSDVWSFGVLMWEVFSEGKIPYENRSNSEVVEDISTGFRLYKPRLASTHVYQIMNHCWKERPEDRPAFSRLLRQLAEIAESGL

[5] = biological target: Tyrosine-protein kinase Fer (Homo sapiens) (UniProt P16591); assay: Selectivity interaction (KinomeScan (DiscoverX)) EUB0000607a FER; conditions: at 10 µM
[6] = biological target: T2, Dual specificity tyrosine-phosphorylation-regulated kinase 2 (Homo sapiens) (UniProt Q92630); assay: Selectivity interaction (Kinase panel (DSF assay)) EUB0001558a DYRK2
T2 sequence (whole entry): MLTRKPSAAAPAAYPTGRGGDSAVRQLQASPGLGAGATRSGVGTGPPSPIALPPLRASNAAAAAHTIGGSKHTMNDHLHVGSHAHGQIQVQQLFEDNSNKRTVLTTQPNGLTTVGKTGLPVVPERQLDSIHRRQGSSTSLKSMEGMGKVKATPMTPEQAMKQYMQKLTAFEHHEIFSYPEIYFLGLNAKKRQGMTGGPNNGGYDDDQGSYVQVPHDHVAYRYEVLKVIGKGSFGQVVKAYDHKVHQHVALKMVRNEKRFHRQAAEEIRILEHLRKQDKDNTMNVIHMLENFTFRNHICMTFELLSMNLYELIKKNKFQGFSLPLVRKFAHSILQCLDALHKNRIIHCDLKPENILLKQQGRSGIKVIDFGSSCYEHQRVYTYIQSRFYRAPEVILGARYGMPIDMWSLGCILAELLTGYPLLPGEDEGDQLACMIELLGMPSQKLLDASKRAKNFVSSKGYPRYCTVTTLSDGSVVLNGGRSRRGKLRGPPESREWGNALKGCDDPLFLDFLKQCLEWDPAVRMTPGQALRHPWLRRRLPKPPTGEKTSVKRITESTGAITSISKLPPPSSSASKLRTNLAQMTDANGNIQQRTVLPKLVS

[7] = biological target: T3, Tyrosine-protein kinase receptor TYRO3 (Homo sapiens) (UniProt Q06418); assay: Selectivity interaction (KinomeScan (DiscoverX)) EUB0000618a TYRO3; conditions: at 10 µM
T3 sequence (whole entry): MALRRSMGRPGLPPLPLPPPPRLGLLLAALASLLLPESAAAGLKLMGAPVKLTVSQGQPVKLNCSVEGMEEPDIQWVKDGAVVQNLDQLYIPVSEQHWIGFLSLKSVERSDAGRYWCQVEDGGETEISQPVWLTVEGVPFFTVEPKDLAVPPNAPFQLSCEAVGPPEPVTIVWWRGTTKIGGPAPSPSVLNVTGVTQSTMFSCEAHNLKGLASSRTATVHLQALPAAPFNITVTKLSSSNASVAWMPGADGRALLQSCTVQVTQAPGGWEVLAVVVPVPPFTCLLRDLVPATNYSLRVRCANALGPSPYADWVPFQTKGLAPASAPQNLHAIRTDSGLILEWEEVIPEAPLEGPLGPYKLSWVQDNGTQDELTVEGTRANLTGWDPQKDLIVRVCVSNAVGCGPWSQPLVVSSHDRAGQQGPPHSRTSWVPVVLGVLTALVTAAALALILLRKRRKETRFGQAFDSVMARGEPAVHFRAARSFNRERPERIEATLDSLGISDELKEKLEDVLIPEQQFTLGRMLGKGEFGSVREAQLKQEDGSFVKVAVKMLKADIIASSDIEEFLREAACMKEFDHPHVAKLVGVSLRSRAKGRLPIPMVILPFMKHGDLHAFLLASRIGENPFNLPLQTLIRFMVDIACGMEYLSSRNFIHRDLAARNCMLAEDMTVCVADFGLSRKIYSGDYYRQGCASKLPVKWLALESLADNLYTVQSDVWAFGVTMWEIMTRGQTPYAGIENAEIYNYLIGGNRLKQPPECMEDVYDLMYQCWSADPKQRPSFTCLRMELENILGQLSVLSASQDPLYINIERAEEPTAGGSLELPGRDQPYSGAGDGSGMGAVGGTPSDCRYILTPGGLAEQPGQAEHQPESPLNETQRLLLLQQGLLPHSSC

[8] = biological target: Tyrosine-protein kinase ABL2 (Homo sapiens, UniProt P42684); assay: Selectivity interaction (ActivX KiNativ screen (kinase selectivity in THP-1 cell lysates)) EUB0000639a ABL2; assay type: subcellular; conditions: lysate
Chain of Tyrosine-protein kinase ABL2 (P42684 whole entry): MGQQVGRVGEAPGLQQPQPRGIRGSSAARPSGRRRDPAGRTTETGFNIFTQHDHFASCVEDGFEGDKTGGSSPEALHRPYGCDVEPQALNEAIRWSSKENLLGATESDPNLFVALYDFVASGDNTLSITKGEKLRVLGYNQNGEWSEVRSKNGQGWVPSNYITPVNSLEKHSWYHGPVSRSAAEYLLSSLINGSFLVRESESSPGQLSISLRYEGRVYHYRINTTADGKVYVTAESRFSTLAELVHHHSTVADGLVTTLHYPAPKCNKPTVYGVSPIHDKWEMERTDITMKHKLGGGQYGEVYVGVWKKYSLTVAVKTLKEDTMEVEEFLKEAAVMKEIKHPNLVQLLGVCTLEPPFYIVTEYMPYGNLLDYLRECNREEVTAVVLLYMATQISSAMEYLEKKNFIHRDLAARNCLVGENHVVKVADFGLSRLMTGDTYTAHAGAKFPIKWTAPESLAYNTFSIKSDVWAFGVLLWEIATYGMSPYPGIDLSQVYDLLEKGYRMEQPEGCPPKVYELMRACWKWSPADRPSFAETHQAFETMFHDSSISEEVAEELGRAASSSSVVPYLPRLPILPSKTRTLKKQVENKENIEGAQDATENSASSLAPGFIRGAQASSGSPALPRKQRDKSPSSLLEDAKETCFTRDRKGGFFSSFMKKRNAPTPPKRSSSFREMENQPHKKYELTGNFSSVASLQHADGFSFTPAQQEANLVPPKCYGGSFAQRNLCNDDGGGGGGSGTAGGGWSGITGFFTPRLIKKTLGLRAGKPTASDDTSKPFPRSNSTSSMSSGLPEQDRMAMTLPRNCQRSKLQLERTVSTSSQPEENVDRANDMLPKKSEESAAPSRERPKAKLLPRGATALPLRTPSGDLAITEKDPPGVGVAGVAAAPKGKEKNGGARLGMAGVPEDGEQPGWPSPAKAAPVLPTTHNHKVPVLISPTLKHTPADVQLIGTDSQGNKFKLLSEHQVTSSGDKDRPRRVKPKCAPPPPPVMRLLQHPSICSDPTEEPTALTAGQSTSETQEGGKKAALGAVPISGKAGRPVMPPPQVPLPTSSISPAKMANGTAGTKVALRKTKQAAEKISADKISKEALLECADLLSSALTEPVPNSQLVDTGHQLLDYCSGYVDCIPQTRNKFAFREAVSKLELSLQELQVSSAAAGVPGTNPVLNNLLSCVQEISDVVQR

[9] = biological target: Tyrosine-protein kinase BTK (Homo sapiens, UniProt Q06187); assay: Selectivity interaction (ActivX KiNativ screen (kinase selectivity in THP-1 cell lysates)) EUB0000639a BTK; assay type: subcellular; conditions: lysate, at 1 µM
Chain of Tyrosine-protein kinase BTK (Q06187 whole entry): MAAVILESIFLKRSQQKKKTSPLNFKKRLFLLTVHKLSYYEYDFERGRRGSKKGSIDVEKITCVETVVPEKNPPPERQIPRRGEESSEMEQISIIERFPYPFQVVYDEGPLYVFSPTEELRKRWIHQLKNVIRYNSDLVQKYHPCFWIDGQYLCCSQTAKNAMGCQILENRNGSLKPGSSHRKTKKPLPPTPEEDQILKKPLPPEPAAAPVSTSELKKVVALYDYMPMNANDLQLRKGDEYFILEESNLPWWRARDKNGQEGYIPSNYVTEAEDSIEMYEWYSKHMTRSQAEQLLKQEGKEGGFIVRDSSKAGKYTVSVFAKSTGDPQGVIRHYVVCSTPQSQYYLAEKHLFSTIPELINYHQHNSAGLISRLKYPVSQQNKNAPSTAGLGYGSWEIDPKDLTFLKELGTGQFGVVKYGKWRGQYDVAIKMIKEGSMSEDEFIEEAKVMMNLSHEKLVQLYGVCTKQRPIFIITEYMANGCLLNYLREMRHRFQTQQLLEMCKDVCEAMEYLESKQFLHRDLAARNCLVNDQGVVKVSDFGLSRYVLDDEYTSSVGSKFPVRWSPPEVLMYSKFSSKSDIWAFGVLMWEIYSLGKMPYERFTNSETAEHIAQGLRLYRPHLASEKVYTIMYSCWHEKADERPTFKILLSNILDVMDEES

[10] = biological target: Dual specificity mitogen-activated protein kinase kinase 2 (Homo sapiens) (UniProt P36507); assay: Selectivity interaction (ActivX KiNativ screen (kinase selectivity in THP-1 cell lysates)) EUB0000639a MAP2K2; assay type: subcellular; conditions: lysate, at 1 µM
Chain of Dual specificity mitogen-activated protein kinase kinase 2 (Homo sapiens) (P36507 whole entry): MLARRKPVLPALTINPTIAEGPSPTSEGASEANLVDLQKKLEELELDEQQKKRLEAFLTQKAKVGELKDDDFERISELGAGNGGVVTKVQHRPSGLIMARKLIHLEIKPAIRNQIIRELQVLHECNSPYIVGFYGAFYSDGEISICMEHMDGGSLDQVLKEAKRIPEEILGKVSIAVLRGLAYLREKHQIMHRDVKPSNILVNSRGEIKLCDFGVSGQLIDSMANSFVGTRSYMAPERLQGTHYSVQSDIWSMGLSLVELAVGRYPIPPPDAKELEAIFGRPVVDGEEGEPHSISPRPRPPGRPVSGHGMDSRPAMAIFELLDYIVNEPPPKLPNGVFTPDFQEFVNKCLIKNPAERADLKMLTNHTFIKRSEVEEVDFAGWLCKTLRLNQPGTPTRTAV

[11] = biological target: MAP/microtubule affinity-regulating kinase 3 (Homo sapiens) (UniProt P27448); assay: Selectivity interaction (ActivX KiNativ screen (kinase selectivity in THP-1 cell lysates)) EUB0000639a MARK3; assay type: subcellular; conditions: lysate, at 0.04 µM
Chain of MAP/microtubule affinity-regulating kinase 3 (Homo sapiens) (P27448 whole entry, looked up): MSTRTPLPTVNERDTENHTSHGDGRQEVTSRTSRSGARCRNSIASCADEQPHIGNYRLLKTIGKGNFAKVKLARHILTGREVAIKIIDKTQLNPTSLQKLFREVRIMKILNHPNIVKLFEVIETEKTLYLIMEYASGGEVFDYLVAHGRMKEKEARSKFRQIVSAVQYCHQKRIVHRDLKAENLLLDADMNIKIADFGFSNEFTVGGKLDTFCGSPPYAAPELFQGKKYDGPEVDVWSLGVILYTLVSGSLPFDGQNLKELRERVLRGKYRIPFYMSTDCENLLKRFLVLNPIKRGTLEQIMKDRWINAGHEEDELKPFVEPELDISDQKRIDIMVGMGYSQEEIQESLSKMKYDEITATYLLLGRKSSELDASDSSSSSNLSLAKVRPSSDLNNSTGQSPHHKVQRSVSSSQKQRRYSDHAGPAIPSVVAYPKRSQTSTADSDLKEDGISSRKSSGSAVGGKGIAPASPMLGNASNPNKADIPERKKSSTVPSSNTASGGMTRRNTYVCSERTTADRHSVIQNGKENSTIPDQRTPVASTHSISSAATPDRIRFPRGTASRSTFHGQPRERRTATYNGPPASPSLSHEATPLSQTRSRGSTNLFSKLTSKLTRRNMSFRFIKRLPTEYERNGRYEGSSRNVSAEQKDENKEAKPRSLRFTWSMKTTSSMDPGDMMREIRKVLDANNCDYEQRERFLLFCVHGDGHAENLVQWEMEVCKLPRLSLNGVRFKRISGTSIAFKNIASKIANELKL

Chain of Phosphatidylinositol 4,5-bisphosphate 3-kinase catalytic subunit alpha isoform (Homo sapiens), P42336 [M1043I] (P42336 whole entry M1043I, canonical isoform): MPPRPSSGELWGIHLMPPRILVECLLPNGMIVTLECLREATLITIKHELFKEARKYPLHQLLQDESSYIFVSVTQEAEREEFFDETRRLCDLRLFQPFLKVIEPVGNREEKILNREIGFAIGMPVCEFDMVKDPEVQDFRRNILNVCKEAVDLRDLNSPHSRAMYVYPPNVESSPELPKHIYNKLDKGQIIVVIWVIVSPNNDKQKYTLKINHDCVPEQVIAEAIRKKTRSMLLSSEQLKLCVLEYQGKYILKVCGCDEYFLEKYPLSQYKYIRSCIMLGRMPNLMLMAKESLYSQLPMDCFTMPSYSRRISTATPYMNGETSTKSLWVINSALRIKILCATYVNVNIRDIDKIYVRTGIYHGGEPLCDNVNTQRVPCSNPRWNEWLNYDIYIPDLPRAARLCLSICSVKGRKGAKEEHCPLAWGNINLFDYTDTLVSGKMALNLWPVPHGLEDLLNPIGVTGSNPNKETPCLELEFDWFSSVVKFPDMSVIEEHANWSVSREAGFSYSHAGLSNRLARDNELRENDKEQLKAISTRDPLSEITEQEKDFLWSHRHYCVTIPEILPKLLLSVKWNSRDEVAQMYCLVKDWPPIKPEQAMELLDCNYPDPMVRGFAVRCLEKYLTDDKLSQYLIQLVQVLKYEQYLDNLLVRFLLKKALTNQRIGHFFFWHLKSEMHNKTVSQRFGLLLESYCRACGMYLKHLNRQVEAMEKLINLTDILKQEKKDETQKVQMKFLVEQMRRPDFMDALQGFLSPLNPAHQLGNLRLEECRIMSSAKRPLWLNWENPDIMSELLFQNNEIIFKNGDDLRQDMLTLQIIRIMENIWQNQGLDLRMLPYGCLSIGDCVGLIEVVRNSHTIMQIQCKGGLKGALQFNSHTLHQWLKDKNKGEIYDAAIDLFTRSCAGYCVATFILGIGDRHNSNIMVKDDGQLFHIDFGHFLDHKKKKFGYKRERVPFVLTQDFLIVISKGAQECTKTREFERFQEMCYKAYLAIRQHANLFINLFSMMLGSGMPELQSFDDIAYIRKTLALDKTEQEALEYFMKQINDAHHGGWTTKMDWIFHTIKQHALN
Chain of High affinity nerve growth factor receptor (P04629 33-796 limits assumed): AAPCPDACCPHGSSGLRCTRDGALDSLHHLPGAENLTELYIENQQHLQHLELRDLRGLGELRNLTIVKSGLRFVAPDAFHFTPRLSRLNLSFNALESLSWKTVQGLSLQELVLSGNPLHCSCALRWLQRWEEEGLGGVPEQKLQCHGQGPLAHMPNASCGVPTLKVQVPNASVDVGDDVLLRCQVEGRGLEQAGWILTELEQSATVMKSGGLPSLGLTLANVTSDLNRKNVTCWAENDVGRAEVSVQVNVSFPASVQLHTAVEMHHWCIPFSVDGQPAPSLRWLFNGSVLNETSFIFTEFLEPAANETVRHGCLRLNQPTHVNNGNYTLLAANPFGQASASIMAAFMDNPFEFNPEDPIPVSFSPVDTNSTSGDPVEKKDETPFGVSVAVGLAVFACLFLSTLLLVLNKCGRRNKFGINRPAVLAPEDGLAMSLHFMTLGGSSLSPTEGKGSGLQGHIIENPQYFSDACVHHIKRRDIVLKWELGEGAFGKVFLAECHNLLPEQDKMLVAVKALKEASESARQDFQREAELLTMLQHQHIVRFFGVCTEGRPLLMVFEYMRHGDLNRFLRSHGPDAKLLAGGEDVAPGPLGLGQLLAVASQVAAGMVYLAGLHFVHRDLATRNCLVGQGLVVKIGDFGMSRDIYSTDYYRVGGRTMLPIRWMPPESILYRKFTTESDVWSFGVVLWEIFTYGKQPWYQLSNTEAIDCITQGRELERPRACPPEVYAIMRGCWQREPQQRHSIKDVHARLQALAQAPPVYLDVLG

`COCC(=O)NC/C=C/c1ccc2ncnc(Nc3ccc(Oc4ccc(C)nc4)c(C)c3)c2c1` [CP-724714] showed a % of control [1] of 100%.

`Cn1cc(-n2cnc3c(NCc4nc5cc(Cl)c(Cl)cc5[nH]4)nc(N4CCOCC4)nc32)cn1` gave a % of control [2] of -5.4%.

For `COc1cc(Nc2nc(C)cc(-c3cnn4nc(OC)ccc34)n2)cc(C(F)(F)F)c1`, the % of control [3] was 88%.

`Cc1ccc(-c2ccc3c(ccc4sc5c(c43)NC[C@@H](C)NC5=O)n2)cn1` gave a % of inhibition [4] of -1%.

In the case of `CNC(=O)Nc1ccc(-c2nc(N3CC4CCC(C3)O4)c3cnn(C4CCC5(CC4)OCCO5)c3n2)cc1`, the % of control [5] is reported as 100%.

Work on `CC(C)(O)[C@H](F)CN1Cc2cc(NC(=O)c3cnn4cccnc34)c(N3CCOCC3)cc2C1=O` yielded a dTM [6] of 5 K.

`O[C@H]1CC[C@H](Nc2ncc3nc(Nc4c(F)cc(F)cc4F)n([C@H]4CCOC4)c3n2)CC1` was tested, and the % of control [7] was 100%.

In the case of `CC[C@@H]1[C@H](F)C(=O)N[C@@H]1COc1nccc2cc(C(N)=O)c(OC)cc12` [ZIMLOVISERTIB], the % of inhibition ([8]; at 0.01 µM) is reported as 52%, the % of inhibition ([8]; at 0.04 µM) is reported as -16% and the % of inhibition ([8]; at 0.2 µM) is reported as -25.4%. For the same compound, the % of inhibition ([8]; at 1 µM) was -5.3%, the % of inhibition ([8]; at 5 µM) was -19.6% and the % of inhibition [9] was -7.2%. For the same compound, the % of inhibition [10] was -10.2% and the % of inhibition [11] was 9.1%.

— ChEMBL document CHEMBL5465560, “Selectivity Literature for EUbOPEN Chemogenomic Library” (2024)
